According to patent US5041567A, “Antibacterial monic acid derivatives” (Beecham Group plc, priority 1982, dated 1991):
Converted amounts (≈) assume the structure as drawn.

Assays:
M. suipneumoniae JF 435 = test: MIC against mycoplasma in vitro; type: cell-based; conditions: Mesomycoplasma hyopneumoniae, JF435, 144 h; M. suipneumoniae JF 435; 6 days, 37° C.; read-out: MIC
M. suipneumoniae HK(2) = test: MIC against mycoplasma in vitro; type: cell-based; conditions: Mesomycoplasma hyopneumoniae, 144 h; M. suipneumoniae HK(2); 6 days, 37° C.; read-out: MIC
[1] = test system: M. suipneumoniae J2206/183^b; test: MIC against mycoplasma in vitro; type: cell-based; conditions: Mesomycoplasma hyopneumoniae, 144 h; M. suipneumoniae J2206/183^b; 6 days, 37° C.; read-out: MIC
M. suipneumoniae MS 16 = test: MIC against mycoplasma in vitro; type: cell-based; conditions: Mesomycoplasma hyopneumoniae, MS16, 144 h; M. suipneumoniae MS 16; 6 days, 37° C.; read-out: MIC
M. suipneumoniae LABER = test: MIC against mycoplasma in vitro; type: cell-based; conditions: Mesomycoplasma hyopneumoniae, 144 h; M. suipneumoniae LABER; 6 days, 37° C.; read-out: MIC
M. suipneumoniae TAM 6N = test: MIC against mycoplasma in vitro; type: cell-based; conditions: Mesomycoplasma hyopneumoniae, TAM6N, 144 h; M. suipneumoniae TAM 6N; 6 days, 37° C.; read-out: MIC
[2] = test system: M. suipneumoniae ATCC 25095; test: MIC against mycoplasma in vitro; type: cell-based; conditions: Mesomycoplasma hyopneumoniae, ATCC25095, 144 h; M. suipneumoniae ATCC 25095; 6 days, 37° C.; read-out: MIC
[3] = test system: M. suipneumoniae NCTC 10110; test: MIC against mycoplasma in vitro; type: cell-based; conditions: Mesomycoplasma hyopneumoniae, NCTC10110, 144 h; M. suipneumoniae NCTC 10110; 6 days, 37° C.; read-out: MIC
M. hyorhinis ATCC 23234 = test: MIC against mycoplasma in vitro; type: cell-based; conditions: Mesomycoplasma hyorhinis, ATCC23234, 144 h; M. hyorhinis ATCC 23234; 6 days, 37° C.; read-out: MIC
M. hyorhinis ATCC 25021 = test: MIC against mycoplasma in vitro; type: cell-based; conditions: Mesomycoplasma hyorhinis, ATCC25021, 144 h; M. hyorhinis ATCC 25021; 6 days, 37° C.; read-out: MIC
[4] = test system: M. hyosynoviae ATCC 25591; test: MIC against mycoplasma in vitro; type: cell-based; conditions: 144 h; M. hyosynoviae ATCC 25591; 6 days, 37° C.; read-out: MIC
M. dispar NCTC 10125 = test: MIC against mycoplasma in vitro; type: cell-based; conditions: 144 h; M. dispar NCTC 10125; 6 days, 37° C.; read-out: MIC
M. pneumoniae ATCC 15492 = test: MIC against mycoplasma in vitro; type: cell-based; conditions: Mycoplasmoides pneumoniae, ATCC15492, 144 h; M. pneumoniae ATCC 15492; 6 days, 37° C.; read-out: MIC
E. coli ESS = test: MIC against human bacteria in vitro; type: cell-based; conditions: Escherichia coli; E. coli ESS; 5% chocolated horse blood agar, 18 hours; read-out: MIC
P. mirabilis 889 = test: MIC against human bacteria in vitro; type: cell-based; conditions: Proteus mirabilis; P. mirabilis 889; 5% chocolated horse blood agar, 18 hours; read-out: MIC
K. aerogenes A = test: MIC against human bacteria in vitro; type: cell-based; conditions: Klebsiella aerogenes; K. aerogenes A; 5% chocolated horse blood agar, 18 hours; read-out: MIC
[5] = test system: Pasteurella multocida 1633; test: MIC against human bacteria in vitro; type: cell-based; conditions: Pasteurella multocida 1633; 5% chocolated horse blood agar, 18 hours; read-out: MIC
[6] = test system: Neisseria catarrhalis 1502; test: MIC against human bacteria in vitro; type: cell-based; conditions: Neisseria catarrhalis 1502; 5% chocolated horse blood agar, 18 hours; read-out: MIC
Bacillus subtilis 6633 = test: MIC against human bacteria in vitro; type: cell-based; conditions: Bacillus subtilis 6633; 5% chocolated horse blood agar, 18 hours; read-out: MIC
Sarcina lutea 8340 = test: MIC against human bacteria in vitro; type: cell-based; conditions: Micrococcus luteus; Sarcina lutea 8340; 5% chocolated horse blood agar, 18 hours; read-out: MIC
Staph. aureus Oxford = test: MIC against human bacteria in vitro; type: cell-based; conditions: Staphylococcus aureus; Staph. aureus Oxford; 5% chocolated horse blood agar, 18 hours; read-out: MIC
Staph. aureus Russell = test: MIC against human bacteria in vitro; type: cell-based; conditions: Staphylococcus aureus; Staph. aureus Russell; 5% chocolated horse blood agar, 18 hours; read-out: MIC
Staph. aureus W2827 = test: MIC against human bacteria in vitro; type: cell-based; conditions: Staphylococcus aureus; Staph. aureus W2827; 5% chocolated horse blood agar, 18 hours; read-out: MIC
Strep. faecalis I = test: MIC against human bacteria in vitro; type: cell-based; conditions: Enterococcus faecalis; Strep. faecalis I; 5% chocolated horse blood agar, 18 hours; read-out: MIC
[7] = test system: Strep. pyogenes R80/421-A; test: MIC against human bacteria in vitro; type: cell-based; conditions: Streptococcus pyogenes; Strep. pyogenes R80/421-A; 5% chocolated horse blood agar, 18 hours; read-out: MIC
Strep. spp. 64/848-C = test: MIC against human bacteria in vitro; type: cell-based; conditions: Strep. spp. 64/848-C; 5% chocolated horse blood agar, 18 hours; read-out: MIC
Strep. pneumoniae CN33 = test: MIC against human bacteria in vitro; type: cell-based; conditions: Streptococcus pneumoniae; Strep. pneumoniae CN33; 5% chocolated horse blood agar, 18 hours; read-out: MIC
E. coli E1 = test: MIC against veterinary bacteria in vitro; conditions: Escherichia coli, E1, 18 h
Protocol: (§1) The activity of the compounds of the Examples against various veterinarily important bacteria, was assayed in vitro using two-fold serial dilutions in Diagnostic Sensitivity Test Agar inoculated with 10^4 organisms.

S. typhimurium S18 = test: MIC against veterinary bacteria in vitro; conditions: Salmonella enterica, TYPHIMURIUM, 18 h
Protocol: as §1

Bord. bronchiseptica B08 = test: MIC against veterinary bacteria in vitro; conditions: Bordetella bronchiseptica, B08, 18 h
Protocol: as §1

Past. multocida PA2 = test: MIC against veterinary bacteria in vitro; conditions: Pasteurella multocida, PA2, 18 h
Protocol: as §1

[8] = test system: Staph. aureus B4 (pen. resistant); test: MIC against veterinary bacteria in vitro; conditions: Staphylococcus aureus, 18 h
Protocol: as §1

[9] = test system: Staph. aureus 152 (pen. sens); test: MIC against veterinary bacteria in vitro; conditions: Staphylococcus aureus, 18 h
Protocol: as §1

[10] = test system: Strep. suis (group D) SPS11; test: MIC against veterinary bacteria in vitro; conditions: Streptococcus suis, 18 h
Protocol: as §1

Strep. uberis SPU1 = test: MIC against veterinary bacteria in vitro; conditions: Streptococcus uberis, SPU1, 18 h
Protocol: as §1

Row | Compound | MIC (M. suipneumoniae JF 435) [µg/mL] | MIC (M. suipneumoniae HK(2)) [µg/mL] | MIC [1] [µg/mL] | MIC (M. suipneumoniae MS 16) [µg/mL] | MIC (M. suipneumoniae LABER) [µg/mL] | MIC (M. suipneumoniae TAM 6N) [µg/mL] | MIC [2] [µg/mL] | MIC [3] [µg/mL] | MIC (M. hyorhinis ATCC 23234) [µg/mL] | MIC (M. hyorhinis ATCC 25021) [µg/mL] | MIC [4] [µg/mL] | MIC (M. dispar NCTC 10125) [µg/mL] | MIC (M. pneumoniae ATCC 15492) [µg/mL] | MIC (E. coli ESS) [µg/mL] | MIC (P. mirabilis 889) [µg/mL] | MIC (K. aerogenes A) [µg/mL] | MIC [5] [µg/mL] | MIC [6] [µg/mL] | MIC (Bacillus subtilis 6633) [µg/mL] | MIC (Sarcina lutea 8340) [µg/mL] | further results
1 | C/C(=C\c1ncc(-c2ccc([S+](C)[O-])cc2)o1)C[C@@H]1OC[C@H](C[C@@H]2O[C@H]2[C@@H](C)[C@H](C)O)[C@@H](O)[C@H]1O (stereo partly shown) [Example 11, 5-p-Methylsulphinylphenyl-2-(1-normon-2-yl) oxazole A] | 0.25 (≈ 0.494 µM) | 0.25 (≈ 0.494 µM) | 0.25 (≈ 0.494 µM) | 0.1 (≈ 0.198 µM) | 0.1 (≈ 0.198 µM) | 0.5 (≈ 0.989 µM) | 0.25 (≈ 0.494 µM) | 0.25 (≈ 0.494 µM) | 0.1 (≈ 0.198 µM) | 0.1 (≈ 0.198 µM) | 0.25 (≈ 0.494 µM) | 0.1 (≈ 0.198 µM) | 0.5 (≈ 0.989 µM) | 128 (≈ 253 µM) | > 128 | > 128 | 8 (≈ 15.8 µM) | 8 (≈ 15.8 µM) | 4 (≈ 7.91 µM) | > 128 | MIC (Staph. aureus Oxford): 16 µg/mL (≈ 31.6 µM); MIC (Staph. aureus Russell): 16 µg/mL (≈ 31.6 µM); MIC (Staph. aureus W2827): 16 µg/mL (≈ 31.6 µM); MIC (Strep. faecalis I): > 128 µg/mL; MIC [7]: 4 µg/mL (≈ 7.91 µM); MIC (Strep. spp. 64/848-C): 2 µg/mL (≈ 3.96 µM); MIC (Strep. pneumoniae CN33): 4 µg/mL (≈ 7.91 µM); MIC (E. coli E1): > 80 µg/mL; MIC (S. typhimurium S18): > 80 µg/mL; MIC (Bord. bronchiseptica B08): > 80 µg/mL; MIC (Past. multocida PA2): 0.625 µg/mL (≈ 1.24 µM); MIC [8]: 5 µg/mL (≈ 9.89 µM); MIC [9]: 2.5 µg/mL (≈ 4.94 µM); MIC [10]: 5 µg/mL (≈ 9.89 µM); MIC (Strep. uberis SPU1): 0.312 µg/mL (≈ 0.617 µM)
2 | C/C(=C\c1ncc(CCCCCCCC(=O)O)o1)C[C@@H]1OC[C@H](C[C@@H]2O[C@H]2[C@@H](C)[C@H](C)O)[C@@H](O)[C@H]1O [Example 12, Sodium 8-[2-(1-normon-2-yl)-5-oxazolyl]-octanoate A] | > 10 | > 10 | > 10 | 10 | > 10 | > 10 | 10 | > 10 | 5 | 5 | 5 | 5 | > 10 | > 16 | > 16 | > 16 | 4 | 16 | 4 | > 16 | MIC (Staph. aureus Oxford): 8 µg/mL; MIC (Staph. aureus Russell): 8 µg/mL; MIC (Staph. aureus W2827): 8 µg/mL; MIC (Strep. faecalis I): > 16 µg/mL; MIC [7]: 16 µg/mL; MIC (Strep. spp. 64/848-C): 4 µg/mL; MIC (Strep. pneumoniae CN33): 16 µg/mL; MIC (E. coli E1): > 40 µg/mL; MIC (S. typhimurium S18): > 40 µg/mL; MIC (Bord. bronchiseptica B08): > 40 µg/mL; MIC (Past. multocida PA2): 0.156 µg/mL; MIC [8]: 2.5 µg/mL; MIC [9]: 0.625 µg/mL; MIC [10]: 20 µg/mL; MIC (Strep. uberis SPU1): 0.625 µg/mL
